Read-outs that look alike come from different tables or passages of the source. Numbered stars: 1 amine (or outer) side, 2 acyl side, 3 side chain; on linkers, the order of the positions; unused ones are H or OH. Bridge positions count the residues as written; N and C are the ends. Square brackets hold non-standard residues; d marks the D form. Peptide text beside a SMILES is read from it. X1 = CC(C)CCCCCCCCC[C@H](CC(=O)[*:1])O[*:2]
Legend:
[1] = tested on: Streptomyces turgidiscabies 91SY-12; assay: Antibacterial activity against potato scab pathogen: surfactin sodium in agar medium; format: cell-based; settings: 30° C., 3 days
Procedure: Each agar medium was smeared with a spore suspension of the potato scab pathogen Streptomyces turgidiscabies 91SY-12 (hereinafter referred to as “the strain 91SY-12”) and incubated at 30° C. for 3 days.

[2] = tested on: plant pathogens; settings: surfactin alone; reported in JP 06-135811 A; cited from earlier work
[3] = tested on: Streptomyces turgidiscabies 91SY-12; settings: 50 μl per paper disk, 30° C., 6 days
[4] = tested on: Streptomyces turgidiscabies 91SY-12; settings: 10 mg/ml in methanol, 30° C., 11 days
From the text: In the same manner as shown in Example 2, the agar medium was smeared with a spore suspension of the strain 91SY-12, and 4 paper disks (8 mm diameter) were placed thereon.

Row | Compound | inhibition of spore formation ([1]; 10 μg/ml in agar medium) | inhibition of spore formation ([1]; 50 μg/ml in agar medium) | inhibition of spore formation ([1]; 100 μg/ml in agar medium) | antibacterial action against plant pathogens [2] | inhibitory effect on spore formation ([3]; 0.01 mg/ml in methanol) | inhibitory effect on spore formation ([3]; 0.1 mg/ml in methanol) | inhibitory effect on spore formation ([3]; 1.0 mg/ml in methanol) | inhibition of spore formation ([4]; 10 μl per paper disk) | inhibition of spore formation ([4]; 50 μl per paper disk) | inhibition of spore formation ([4]; 100 μl per paper disk)
1 | CC(C)CCCCCCCCC[C@@H]1CC(=O)N[C@@H](CCC(=O)O)C(=O)N[C@@H](CC(C)C)C(=O)N[C@H](CC(C)C)C(=O)N[C@@H](C(C)C)C(=O)N[C@@H](CC(=O)O)C(=O)N[C@H](CC(C)C)C(=O)N[C@@H](CC(C)C)C(=O)O1 [surfactin sodium] (EL[dL]VD[dL]L; linker N-C via X1) | tendency to inhibit spore formation | tendency to inhibit spore formation | tendency to inhibit spore formation |  |  |  |  |  |  | 
2 | surfactin |  |  |  | no antibacterial action | no inhibitory effect on spore formation | inhibited, albeit weakly | inhibited strongly | strongly inhibited | strongly inhibited | strongly inhibited

Reference: patent US20090123445A1, “Surfactin-Containing Compositions for Controlling Scab Disease in Agricultural Products” (priority 2005, published 2009)
